Measurements as given in ChEMBL document CHEMBL5154803, “Spermine-Conjugated Short Proline-Rich Lipopeptides as Broad-Spectrum Intracellular Targeting Antibacterial Agents” (J Med Chem, 2022).
In brackets after ≈: the same amount, converted by molar mass. Activity calls are given as the source filed them. The calls are words filed in the database; no cut-off is given here. Where a SMILES comes first, the peptide text is derived from it. The star is where a group is joined. Myristoyl = CCCCCCCCCCCCCC(=O)*; Decanoyl = CCCCCCCCCC(=O)*; Spermine = NCCCNCCCCNCCCN*

Experiments:
[1] = system: Escherichia coli; assay: Antibacterial activity against Escherichia coli ATCC 25922 assessed as reduction in bacterial growth measured after 18 hrs by broth microdilution method; format: functional
[2] = system: Staphylococcus aureus; assay: Antibacterial activity against MDR-methicillin-resistant Staphylococcus aureus ATCC BAA-44 assessed as reduction in bacterial growth measured after 18 hrs by broth microdilution method; format: functional
[3] = system: Staphylococcus epidermidis; assay: Antibacterial activity against methicillin-resistant Staphylococcus epidermidis ATCC 51625 assessed as reduction in bacterial growth measured after 18 hrs by broth microdilution method; format: functional
[4] = system: Staphylococcus aureus; assay: Antibacterial activity against Staphylococcus aureus ATCC 25923 assessed as reduction in bacterial growth measured after 18 hrs by broth microdilution method; format: functional
[5] = system: Staphylococcus aureus; assay: Antibacterial activity against methicillin-resistant Staphylococcus aureus ATCC 33591 assessed as reduction in bacterial growth measured after 18 hrs by broth microdilution method; format: functional
[6] = system: Staphylococcus epidermidis; assay: Antibacterial activity against Staphylococcus epidermidis ATCC 12228 assessed as reduction in bacterial growth measured after 18 hrs by broth microdilution method; format: functional
[7] = system: Pseudomonas aeruginosa; assay: Antibacterial activity against Pseudomonas aeruginosa ATCC BAA-427 assessed as reduction in bacterial growth measured after 18 hrs by broth microdilution method; format: functional
[8] = system: Acinetobacter baumannii; assay: Antibacterial activity against Acinetobacter baumannii i ATCC 19606 assessed as reduction in bacterial growth measured after 18 hrs by broth microdilution method; format: functional
[9] = system: Cell membrane; assay: Disruption of bacterial cell membrane in Escherichia coli ATCC 25922 at 5XMIC by SEM analysis; format: subcellular
[10] = system: Cell membrane; assay: Disruption of bacterial cell membrane in Escherichia coli ATCC 25922 assessed as proportion of bacteria with intact cell membrane at 5X MIC incubated for 1 hr by PI staining based flow cytometric analysis (reference value: 99.3%); format: subcellular
[11] = system: Cell membrane; assay: Disruption of bacterial cell membrane in Escherichia coli ATCC 25922 assessed as proportion of bacteria with damaged cell membrane at 5X MIC incubated for 1 hr by PI staining based flow cytometric analysis (reference value: 0.7%); format: subcellular
[12] = system: Staphylococcus aureus; assay: In vivo antibacterial activity against Staphylococcus aureus ATCC 25923 infected in BALB/c mouse model assessed as reduction of bacterial load in liver at 100 mg/kg, ip administered as single dose measured after 24 hrs by colony counting based analysis; format: functional, organism-based
[13] = system: Staphylococcus aureus; assay: In vivo antibacterial activity against Staphylococcus aureus ATCC 25923 infected in BALB/c mouse model assessed as reduction of bacterial load in spleen at 100 mg/kg, ip administered as single dose measured after 24 hrs by colony counting based analysis; format: functional, organism-based
[14] = system: Staphylococcus aureus; assay: In vivo antibacterial activity against Staphylococcus aureus ATCC 25923 infected in BALB/c mouse model assessed as reduction of bacterial load in kidney at 100 mg/kg, ip administered as single dose measured after 24 hrs by colony counting based analysis; format: functional, organism-based
[15] = system: Erythrocyte; assay: Hemolytic activity against human RBC assessed as hemolysis upto 100 uM incubated for 1 hr by ELISA plate reader analysis; format: toxicity, cell-based
[16] = Cytotoxicity against human THP-1 cells assessed as cell viability at 50 uM by MTT assay; format: toxicity, cell-based; conditions: read-out: Activity
[17] = system: Escherichia coli; assay: Antibacterial activity against Escherichia coli ATCC 25922 assessed as reduction in bacterial growth measured after 18 hrs in presence of 10% v/v human serum in MHB by broth microdilution method; format: functional; conditions: ATCC 25922, Serum

Molecule: N=C(N)NCCC[C@H](NC(=O)[C@@H]1CCCN1C(=O)[C@@H]1CCCN1C(=O)[C@H](CCCNC(=N)N)NC(=O)[C@@H]1CCCN1C(=O)[C@H](CCCNC(=N)N)NC(=O)[C@@H]1CCCN1)C(=O)NCCCNCCCCNCCCN (H-PRPRPPR-Spermine)
- MIC [1]: > 200 µM
- MIC [2]: > 200 µM
- MIC [3]: > 200 µM
- MIC [4]: 200 µM (≈ 212 µg/mL)
- MIC [5]: > 200 µM
- MIC [6]: > 200 µM
- MIC [7]: > 200 µM
- MIC [8]: > 200 µM

Molecule: CN(C)[C@@H]1C(O)=C(C(N)=O)C(=O)[C@@]2(O)C(O)=C3C(=O)c4c(O)cccc4[C@@](C)(O)[C@H]3C[C@@H]12 [TETRACYCLINE]
- MIC [2]: 62.5 µM (≈ 27.8 µg/mL)

Molecule: CC[C@H](C)[C@H](NC(=O)CN)C(=O)NCC(=O)N[C@@H](C)C(=O)N[C@H](C(=O)N[C@@H](CC(C)C)C(=O)N[C@@H](CCCCN)C(=O)N[C@H](C(=O)N[C@@H](CC(C)C)C(=O)N[C@H](C(=O)N[C@H](C(=O)NCC(=O)N[C@@H](CC(C)C)C(=O)N1CCC[C@H]1C(=O)N[C@@H](C)C(=O)N[C@@H](CC(C)C)C(=O)N[C@H](C(=O)N[C@@H](CO)C(=O)N[C@@H](Cc1c[nH]c2ccccc12)C(=O)N[C@H](C(=O)N[C@@H](CCCCN)C(=O)N[C@@H](CCCNC(=N)N)C(=O)N[C@@H](CCCCN)C(=O)N[C@@H](CCCNC(=N)N)C(=O)N[C@@H](CCC(N)=O)C(=O)N[C@@H](CCC(N)=O)C(N)=O)[C@@H](C)CC)[C@@H](C)CC)[C@@H](C)O)[C@@H](C)O)C(C)C)C(C)C
- Activity [9]: Active
- Activity [10]: 36%
- Activity [11]: 64%

Molecule: H-PRPRPPR-OH
- MIC [1]: > 200 µM
- MIC [2]: > 200 µM
- MIC [3]: > 200 µM
- MIC [4]: > 200 µM
- MIC [5]: > 200 µM
- MIC [6]: > 200 µM
- MIC [7]: > 200 µM
- MIC [8]: > 200 µM

Molecule: CN[C@H](CC(C)C)C(=O)N[C@H]1C(=O)N[C@@H](CC(N)=O)C(=O)N[C@H]2C(=O)N[C@H]3C(=O)N[C@H](C(=O)N[C@H](C(=O)O)c4cc(O)cc(O)c4-c4cc3ccc4O)[C@H](O)c3ccc(c(Cl)c3)Oc3cc2cc(c3O[C@@H]2O[C@H](CO)[C@@H](O)[C@H](O)[C@H]2O[C@H]2C[C@](C)(N)[C@H](O)[C@H](C)O2)Oc2ccc(cc2Cl)[C@H]1O [VANCOMYCIN]
- MIC [1]: 200 µM (≈ 290 µg/mL)
- MIC [2]: 0.8 µM (≈ 1.16 µg/mL)
- MIC [3]: 0.8 µM (≈ 1.16 µg/mL)
- MIC [4]: 0.4 µM (≈ 0.58 µg/mL)
- MIC [5]: 0.8 µM (≈ 1.16 µg/mL)
- MIC [6]: 0.4 µM (≈ 0.58 µg/mL)
- MIC [8]: 56.8 µM (≈ 82.3 µg/mL)

Molecule: CCCCCCCCCC(=O)N1CCC[C@H]1C(=O)N[C@@H](CCCNC(=N)N)C(=O)N1CCC[C@H]1C(=O)N[C@@H](CCCNC(=N)N)C(=O)N1CCC[C@H]1C(=O)N1CCC[C@H]1C(=O)N[C@@H](CCCNC(=N)N)C(=O)O (Decanoyl-PRPRPPR-OH)
- MIC [1]: > 200 µM
- MIC [2]: > 200 µM
- MIC [3]: > 200 µM
- MIC [4]: > 200 µM
- MIC [5]: > 200 µM
- MIC [6]: > 200 µM
- MIC [7]: > 200 µM
- MIC [8]: > 200 µM

Molecule: NC[C@@H]1O[C@H](O[C@H]2[C@@H](O)[C@H](O[C@@H]3[C@@H](O)[C@H](N)C[C@H](N)[C@H]3O[C@H]3O[C@H](CN)[C@@H](O)[C@H](O)[C@H]3N)O[C@@H]2CO)[C@H](N)[C@@H](O)[C@@H]1O [FRAMYCETIN]
- MIC [2]: 125 µM (≈ 76.8 µg/mL)

Molecule: C[C@H]1COc2c(N3CCN(C)CC3)c(F)cc3c(=O)c(C(=O)O)cn1c23
- Activity [12]: Active
- Activity [13]: Active
- Activity [14]: Active

Molecule: GENTAMICIN
- MIC [2]: 2.5 µM

Molecule: CCCCCCCCCCCC(=O)NCCCNCCCCNCCCN
- MIC [1]: > 200 µM
- MIC [2]: > 200 µM
- MIC [3]: > 200 µM
- MIC [4]: > 200 µM
- MIC [5]: > 200 µM
- MIC [6]: > 200 µM
- MIC [7]: > 200 µM
- MIC [8]: > 200 µM

Molecule: O=C(N[C@H](CO)[C@H](O)c1ccc([N+](=O)[O-])cc1)C(Cl)Cl [CHLORAMPHENICOL]
- MIC [2]: 1000 µM (≈ 323 µg/mL)

Molecule: CO[C@H]1/C=C/O[C@@]2(C)Oc3c(C)c(O)c4c(O)c(c(/C=N/N5CCN(C)CC5)c(O)c4c3C2=O)NC(=O)/C(C)=C\C=C\[C@H](C)[C@H](O)[C@@H](C)[C@@H](O)[C@@H](C)[C@H](OC(C)=O)[C@@H]1C [RIFAMPIN]
- MIC [2]: 1.25 µM (≈ 1.03 µg/mL)

Molecule: CC1(C)S[C@@H]2[C@H](NC(=O)[C@H](N)c3ccccc3)C(=O)N2[C@H]1C(=O)O [AMPICILLIN]
- MIC [2]: 125 µM (≈ 43.7 µg/mL)

Molecule: CCCCCCCCCCCCCC(=O)N1CCC[C@H]1C(=O)N[C@@H](CCCNC(=N)N)C(=O)N1CCC[C@H]1C(=O)N[C@@H](CCCNC(=N)N)C(=O)N1CCC[C@H]1C(=O)N1CCC[C@H]1C(=O)N[C@@H](CCCNC(=N)N)C(=O)NCCCNCCCCNCCCN (Myristoyl-PRPRPPR-Spermine)
- Activity [15]: Toxic
- MIC [1]: 3.1 µM (≈ 3.94 µg/mL)
- MIC [2]: 1.5 µM (≈ 1.9 µg/mL)
- viability at 50 µM [16]: 40%
- MIC [3]: 1.5 µM (≈ 1.9 µg/mL)
- MIC [4]: 3.1 µM (≈ 3.94 µg/mL)
- MIC [5]: 1.5 µM (≈ 1.9 µg/mL)
- MIC [6]: 1.5 µM (≈ 1.9 µg/mL)
- MIC [17]: 3.1 µM
- MIC [7]: 6.2 µM (≈ 7.87 µg/mL)
- MIC [8]: 6.2 µM (≈ 7.87 µg/mL)

Molecule: CCCCCCCCCC(=O)NCCCNCCCCNCCCN
- MIC [1]: > 200 µM
- MIC [2]: > 200 µM
- MIC [3]: > 200 µM
- MIC [4]: > 200 µM
- MIC [5]: > 200 µM
- MIC [6]: > 200 µM
- MIC [7]: > 200 µM
- MIC [8]: > 200 µM
